Measured values published in patent US12234220B2, “Immunomodulatory compounds” (DANA-FARBER CANCER INSTITUTE, INC., priority 2018, dated 2025).
Where two headings read alike, the source gives them in different places.

Biological target: DDB1AB-CRBN (Homo sapiens, UniProt Q96SW2)
Test: Lenalidomide displacement assay (Atto565-Lenalidomide fluorescence polarization)
Assay type: binding
Conditions: for Ki: calculated from IC50 with probe Kd of 40 nM, competitive model, read-out: CRBN Binding Ki; for binding affinity with CRBN, in words: fluorescence polarization assay, compared to lenalidomide control, FIG. 1A
Method: Compound titrations were incubated for 60 min at RT. The change in fluorescence polarization was monitored using a PHERAstar® FS microplate reader (BMG Labtech) for 1 h in 120 s cycles.

[1] = Table 1, n=2, 10 nM Atto565-Lenalidomide probe, 100 nM DDB1AB-CRBN, read-out: CRBN Binding IC50
[2] = Table 1, n=2, 10 nM Atto565-Lenalidomide probe, 100 nM DDB1AB-CRBN
[3] = refers to Tables 1 and 2, FIG. 1A/1B, read-out: IC50

Chain of DDB1AB-CRBN (Q96SW2 whole entry): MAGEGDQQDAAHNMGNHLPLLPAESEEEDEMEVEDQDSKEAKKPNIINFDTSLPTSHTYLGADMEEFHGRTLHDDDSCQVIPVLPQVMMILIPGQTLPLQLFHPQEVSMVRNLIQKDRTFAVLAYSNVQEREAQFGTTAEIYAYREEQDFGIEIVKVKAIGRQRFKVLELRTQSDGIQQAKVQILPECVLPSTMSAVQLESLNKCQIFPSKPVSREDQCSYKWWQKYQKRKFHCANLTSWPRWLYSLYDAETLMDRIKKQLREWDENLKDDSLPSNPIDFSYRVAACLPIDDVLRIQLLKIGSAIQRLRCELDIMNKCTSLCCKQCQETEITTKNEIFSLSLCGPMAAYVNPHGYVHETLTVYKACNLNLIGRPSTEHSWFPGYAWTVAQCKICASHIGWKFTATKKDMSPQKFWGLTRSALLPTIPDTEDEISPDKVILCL

With `O=C1CCC(NC(=O)c2cccc(OCc3ccccc3)n2)C(=O)N1` (stereo not drawn) [Compound 1, 6-(benzyloxy)-N-(2,6-dioxopiperidin-3-yl)picolinamide] the Ki (Table 1) was 15.7 µM and the IC50 [1] was 55 µM.

`Nc1cccc(C(=O)NC2CCC(=O)NC2=O)n1` (stereo not drawn) [Compound 3, 6-amino-N-(2,6-dioxopiperidin-3-yl)picolinamide] was tested, and the “CRBN Binding, probe displacement at single concentration” value (“CRBN Binding, probe displacement” for short) (at 100 μM) was 30% at 100 μM and the “binding affinity with CRBN, in words” value was “moderate binding affinity”.

With `O=C1CCC(NC(=O)c2cc(Cl)ccn2)C(=O)N1` (stereo not drawn) [Compound 4, 4-chloro-N-(2,6-dioxopiperidin-3-yl)picolinamide] the “CRBN Binding, probe displacement” value (at 100 μM) was 30% at 100 μM and the “binding affinity with CRBN, in words” value was “moderate binding affinity”.

With `O=C1CCC(NC(=O)c2ccnc(NCc3ccccc3)n2)C(=O)N1` (stereo not drawn) [Compound 5, 2-(benzylamino)-N-(2,6-dioxopiperidin-3-yl)pyrimidine-4-carboxamide] the Ki (Table 1) was 32.5 µM, the IC50 [1] was 113 µM and the “binding affinity with CRBN, in words” value was “moderate binding affinity”.

In the case of `COc1cccc(C(=O)NC2CCC(=O)NC2=O)n1` (stereo not drawn) [Compound 6, N-(2,6-dioxopiperidin-3-yl)-6-methoxypicolinamide], the “CRBN Binding IC50” value [2] is reported as “Inactive”.

Molecule `O=C1CCC(NC(=O)c2ccnc(OCc3ccccc3)n2)C(=O)N1` (stereo not drawn) [Compound 7, 2-(benzyloxy)-N-(2,6-dioxopiperidin-3-yl)pyrimidine-4-carboxamide] has a Ki (Table 1) of 8.3 µM and an IC50 [1] of 29 µM.

`O=C1CCC(NC(=O)c2cccc3cccnc23)C(=O)N1` (stereo not drawn) [Compound 8, N-(2,6-dioxopiperidin-3-yl)quinoline-8-carboxamide] was tested, and the Ki (Table 1) was 4 µM and the IC50 [1] was 14 µM.

In the case of `O=C1CCC(NC(=O)c2ccc(OCc3ccc(CN4CCOCC4)cc3)cn2)C(=O)N1` (stereo not drawn) [Compound 11, N-(2,6-dioxopiperidin-3-yl)-5-((4-(morpholinomethyl)benzyl)oxy)picolinamide], the “CRBN Binding, probe displacement” value (at 100 μM) is reported as 50% at 100 μM.

Work on `O=C1CCC(NC(=O)c2ccc[nH]c2=O)C(=O)N1` (stereo not drawn) [Compound 19, N-(2,6-dioxopiperidin-3-yl)-2-oxo-1,2-dihydropyridine-3-carboxamide] yielded a Ki (Table 1) of 15 µM and an IC50 [1] of 53 µM.

`Cn1cccc(C(=O)NC2CCC(=O)NC2=O)c1=O` (stereo not drawn) [Compound 20, N-(2,6-dioxopiperidin-3-yl)-1-methyl-2-oxo-1,2-dihydropyridine-3-carboxamide] showed a Ki (Table 1) of 66 µM and an IC50 [1] of 231 µM.

For `O=C1CCC(NC(=O)c2cccn(-c3ccccc3)c2=O)C(=O)N1` (stereo not drawn) [Compound 21, N-(2,6-dioxopiperidin-3-yl)-2-oxo-1-phenyl-1,2-dihydropyridine-3-carboxamide], the Ki (Table 1) was 20.6 µM and the IC50 [1] was 72 µM.

`O=C1CCC(NC(=O)c2cccn(Cc3ccccc3)c2=O)C(=O)N1` (stereo not drawn) [Compound 22, 1-Benzyl-N-(2,6-dioxopiperidin-3-yl)-2-oxo-1,2-dihydropyridine-3-carboxamide] showed a Ki (Table 1) of 15 µM and an IC50 [1] of 53 µM.

For `Nc1ccc(C(=O)NC2CCC(=O)NC2=O)c2ncccc12` (stereo not drawn) [Compound 23, 5-Amino-N-(2,6-dioxopiperidin-3-yl) quinoline-8-carboxamide], the Ki (Table 1) was 0.8 µM and the IC50 [3] was 2.9 µM.

In the case of `Nc1ccnc2c(C(=O)NC3CCC(=O)NC3=O)cccc12` (stereo not drawn) [Compound 24, 4-Amino-N-(2,6-dioxopiperidin-3-yl)quinoline-8-carboxamide], the Ki (Table 1) is reported as 2.2 µM and the IC50 [3] is reported as 7.7 µM.

With `Nc1cnc2c(C(=O)NC3CCC(=O)NC3=O)cccc2c1` (stereo not drawn) [Compound 25, 3-Amino-N-(2,6-dioxopiperidin-3-yl)quinoline-8-carboxamide] the Ki (Table 1) was 5 µM and the IC50 [1] was 17.5 µM.

For `O=C1CCC(NC(=O)c2cccc3c(O)ccnc23)C(=O)N1` (stereo not drawn) [Compound 26, N-(2,6-dioxopiperidin-3-yl)-4-hydroxyquinoline-8-carboxamide], the “CRBN Binding, probe displacement” value (at 100 μM) was 50% at 100 μM and the “probe displacement” value (at 100 μM) was 50%.

For `Nc1ccc(NC(=O)NC2CCC(=O)NC2=O)nc1` (stereo not drawn) [Compound 27, 1-(5-aminopyridin-2-yl)-3-(2,6-dioxopiperidin-3-yl)urea], the “CRBN Binding, probe displacement” value (at 100 μM) was 50% at 100 μM.

With `O=C1CCC(NC(=O)Nc2ccc(O)cn2)C(=O)N1` (stereo not drawn) [Compound 28, 1-(2,6-Dioxopiperidin-3-yl)-3-(5-hydroxypyridin-2-yl)urea] the “CRBN Binding IC50” value [2] was “inactive”.

With `O=C1CCC(NC(=O)Nc2cccc3c2NCC3)C(=O)N1` (stereo not drawn) [Compound 29, 1-(2,6-Dioxopiperidin-3-yl)-3-(indolin-7-yl)urea] the “CRBN Binding IC50” value [2] was “inactive”.

With `O=C1CCC(NC(=O)c2cccc3c2NCC3)C(=O)N1` (stereo not drawn) [Compound 30, N-(2,6-dioxopiperidin-3-yl)indoline-7-carboxamide] the “CRBN Binding, probe displacement” value (at 100 μM) was 50% at 100 μM.

Molecule `O=C1CCC(NC(=O)c2cccc3nc[nH]c23)C(=O)N1` (stereo not drawn) [Compound 31, N-(2,6-dioxopiperidin-3-yl)-1H-benzo[d]imidazole-4-carboxamide] has a Ki (Table 1) of 10.7 µM and an IC50 [1] of 37.6 µM.

For `O=C1CCC(NC(=O)c2cccc(OCc3ccc(CN4CCOCC4)cc3)n2)C(=O)N1` (stereo not drawn) [Compound 32, N-(2,6-dioxopiperidin-3-yl)-6-((4-(morpholinomethyl)benzyl)oxy)picolinamide], the Ki (Table 1) was 11.4 µM and the IC50 [1] was 40 µM.
